Assay results from patent publication US8846860B2, “Methods of decorating hydroxyapatite biomaterials with modular biologically active molecules” (Wisconsin Alumni Research Foundation, priority 2009, dated 2014).
Non-standard residues stand in square brackets, D forms with d. No end group written: not given here. Gla = N[C@@H](CC(C(=O)O)C(=O)O)C(=O)O

Legend:
hMSCs [1] = assay: Alkaline phosphatase (ALP) activity in hMSCs; type: cell-based, human; settings: soluble peptide (50 μg in 500 μl) with osteogenic supplements, hMSCs on TCP, day 12
Experimental: hMSCs (Cambrex, Walkersville, Md., passages 5-6) were cultured in mesenchymal stem cell growth medium (MSCGM: Cambrex) consisting of MSC Basal Medium supplemented with 10% fetal bovine serum, L-glutamine, 100 units/ml penicillin, and 0.1 mg/ml streptomycin. 2.5×10^4 hMSCs were seeded onto either tissue culture-treated polystyrene (TCP) or four different types of experimental substrates (1 cm^2) (PLG, HA-coated PLG, eBGu3-treated HA coating, or eBGa3-treated HA coating). hMSCs were allowed to attach to each substrate overnight, then cultured in MSCGM with osteogenic culture supplements (OS) (0.1 μM dexamethasone, 50 μg/ml ascorbic acid, and 10 mM β-glycerophosphate) for 24 days. The effects of soluble peptides included in culture medium were evaluated by adding 50 μg of eBGu3 or eBGa3 peptides to hMSC cultures on TCP in 500 μl of medium with or without osteogenic culture supplements. […]
The biological activity of modular peptides was initially assayed by their ability to enhance ALP activity in hMSCs. […] ALP activity was measured at 405 nm, and calculated as the ratio of p-nitrophenol released to total DNA concentration (nmol/min/μg DNA). To determine the amount of total DNA in each well, the cell nuclei were disrupted by addition of the aforementioned lysis buffer followed by centrifugation, and quantified using the CyQUANT Assay Kit (Molecular Probes, Eugene, Oreg.).

hMSCs [2] = assay: Mineralized tissue formation by hMSCs (Alizarin Red-S staining); type: cell-based, human; settings: soluble peptide (50 μg in 500 μl) with osteogenic supplements, hMSCs on TCP, day 20
Experimental: hMSCs (Cambrex, Walkersville, Md., passages 5-6) were cultured in mesenchymal stem cell growth medium (MSCGM: Cambrex) consisting of MSC Basal Medium supplemented with 10% fetal bovine serum, L-glutamine, 100 units/ml penicillin, and 0.1 mg/ml streptomycin. 2.5×10^4 hMSCs were seeded onto either tissue culture-treated polystyrene (TCP) or four different types of experimental substrates (1 cm^2) (PLG, HA-coated PLG, eBGu3-treated HA coating, or eBGa3-treated HA coating). hMSCs were allowed to attach to each substrate overnight, then cultured in MSCGM with osteogenic culture supplements (OS) (0.1 μM dexamethasone, 50 μg/ml ascorbic acid, and 10 mM β-glycerophosphate) for 24 days. The effects of soluble peptides included in culture medium were evaluated by adding 50 μg of eBGu3 or eBGa3 peptides to hMSC cultures on TCP in 500 μl of medium with or without osteogenic culture supplements. In each experimental and control sample, whole volume medium changes were performed every 4 days by replacement with fresh medium and collected medium was used for BMP-2 and OCN ELISA assays.
Characterization of mineralized tissue growth was performed via Alizarin Red-S (ARS) staining at day 20. […] For quantification of staining, 400 μl 10% (v/v) acetic acid was added to each well for 30 minutes with shaking. […] Aliquots (100 μl) of the supernatant were read in triplicate at 405 nm in 96-well plate reader.

[3] = test system: mouse yolk sac endothelial C166-GFP cells; assay: C166-GFP cell proliferation with soluble peptides (CYQUANT); type: cell-based; settings: soluble peptide, 48 hours of stimulation, compared to a control
Experimental: To determine biological activity of VEGF portion for promoting cell proliferation, mouse yolk sac endothelial C166-GFP cells were seeded at a density of 3.12×10^3 cells/cm^2 (1×10^3 cells per well) in 96-well plate, allowed to attach for six hours, and then stimulated with either VEGF-OCN or VEGF-mimic After 48 hours of stimulation, optical micrographs were taken using Olympus IX-51 microscope and cell numbers were determined by CYQUANT assay.

[4] = Binding of VEGF-OCN and VEGF-mimic to HA particle / HA slab
Experimental: To measure the binding efficiency of modular peptides to the HA-coated PLG films and to gain preliminary insight into the properties that influence modular peptide immobilization, we first exposed 1 cm^2 HA-coated PLG films to PBS solutions containing 500 μg (1 mg/ml) of 5(6) FAM-conjugated eBMP-2, eBGu1, eBGu3, eBGa1, or eBGa3 modular peptide solution (See Table 1 for definitions of these abbreviations). The films were incubated in peptide solutions with constant agitation for 4 hours at 37° C., and the amount of free peptide remaining was determined by measuring the fluorescence emission of the solution (excitation: 494 nm; emission 519 nm) using a Synergy HT Multi-Detection Microplate Reader (BioTek, Winooski, Vt.), and comparing this emission to standard samples with known concentrations of 5(6)-FAM. To further characterize surface immobilization of the peptide with the highest binding efficiency—the eBGa3 peptide—1 cm^2 HA-coated films were incubated in various concentrations (50-750 μM) of 5(6)-FAM-conjugated eBGa3 peptide for 4 hours with constant agitation at 37° C. The amount of peptide bound to HA-coated film was again determined by fluorescence analysis, as described above.
The binding behavior of the peptides (both modular peptide, VEGF-OCN (SEQ ID NO:18), and VEGF-mimic) were analyzed and compared as described above. The amount of bound VEGF-OCN on the HA particle increased with peptide concentration and reached saturation at 15 μM (FIG. 8A).

[5] = test system: mouse yolk sac endothelial C166-GFP cells; assay: C166-GFP cell proliferation on peptide-treated HA slabs (CYQUANT); type: cell-based; settings: peptide-treated HA slab, 2-day culture, compared to control
Experimental: Cells were again seeded at a density of 2×10^4 cells/cm^2 (4×10^4 cells per well) in 24-well plate. Prior to seeding, HA slabs (1 cm×1 cm) were incubated in peptide solution (PBS) for four hours at 37° C. and copiously rinsed with deionized water, and then placed in a well of the 24-well plate. After 1-day culture, cells were treated with 2 μM calcein AM solution, and imaged using Olympus IX-51 microscope.
Additionally, a cell number count of the C166-GFP cells as cultured in the presence of VEGF-OCN or VEGF mimic was determined For the cell count, cells were seeded at a density of 5×10^3 cells/cm^2 (1×10^4 cells per well) in a 24-well plate. After 2-day culture, cells were detached from the HA slab and cell number was assessed using CYQUANT assay.

Substance	effect on ALP activity (hMSCs [1])	effect on mineralized tissue formation (hMSCs [2])	cell number [3]	amount bound to HA slab ([4]; HA slab, qualitative comparison)	peptide concentration at which bound amount reached saturation ([4]; HA particle)	time to complete binding to HA particle ([4]; HA particle)	cell number [5]
KIPKASSVPTELSAISTLYLAAAAEPRREVAEL [eBGu3]	no significant differences between the positive effects of eBGu3 and eBGa3	no significant differences between the positive effects of eBGu3 and eBGa3					
KIPKASSVPTELSAISTLYLAAAAγEPRRγEVAγEL (KIPKASSVPTELSAISTLYLAAAA[Gla]PRR[Gla]VA[Gla]L-NH2; N-terminus assumed; SMILES CC[C@H](C)[C@H](NC(=O)[C@H](C)NC(=O)[C@H](CO)NC(=O)[C@H](CC(C)C)NC(=O)[C@H](CCC(=O)O)NC(=O)[C@@H](NC(=O)[C@@H]1CCCN1C(=O)[C@@H](NC(=O)[C@H](CO)NC(=O)[C@H](CO)NC(=O)[C@H](C)NC(=O)[C@H](CCCCN)NC(=O)[C@@H]1CCCN1C(=O)[C@@H](NC(=O)[C@@H](N)CCCCN)[C@@H](C)CC)C(C)C)[C@@H](C)O)C(=O)N[C@@H](CO)C(=O)N[C@H](C(=O)N[C@@H](CC(C)C)C(=O)N[C@@H](Cc1ccc(O)cc1)C(=O)N[C@@H](CC(C)C)C(=O)N[C@@H](C)C(=O)N[C@@H](C)C(=O)N[C@@H](C)C(=O)N[C@@H](C)C(=O)N[C@@H](CC(C(=O)O)C(=O)O)C(=O)N1CCC[C@H]1C(=O)N[C@@H](CCCNC(=N)N)C(=O)N[C@@H](CCCNC(=N)N)C(=O)N[C@@H](CC(C(=O)O)C(=O)O)C(=O)N[C@H](C(=O)N[C@@H](C)C(=O)N[C@@H](CC(C(=O)O)C(=O)O)C(=O)N[C@@H](CC(C)C)C(N)=O)C(C)C)[C@@H](C)O) [eBGa3]	significantly increased ALP activity	significantly increased					
KLTWQELYQLKYKGI [VEGF-mimic, First synthesized by Pedon, et al., inspired by the VEGF helical region, reference compound]			increase in cell number to the similar extent when compared to a control	much less than that of VEGF-OCN			
KLTWQELYQLKYKGI-GGGAAAA-γEPRRγEVAγEL (KLTWQELYQLKYKGIGGGAAAA[Gla]PRR[Gla]VA[Gla]L) [VEGF-OCN]			increase in cell number to the similar extent when compared to a control		15 µM	completed within five minutes	promoted cell proliferation
